According to patent US20080206770A1, “SCREENING METHODS USED TO IDENTIFY COMPOUNDS THAT MODULATE SKIN STROMAL CELLS (FIBROBLASTS) ABILITY TO MODIFY FUNCTION OF EXTRACELLULAR MATRIX” (priority 2007, published 2008):

How the values were obtained:
Human dermal fibroblasts [1] = test: Western blot analysis of protein levels of ECM components after atRA treatment; type: cell-based; details: fold induction (+) or suppression (−) vs control; 10^-7 M, 24 hours
Experimental: (§1) Human dermal fibroblasts were grown in DMEM cell culture media containing 10% fetal bovine serum and 1% penicillin/streptomycin (Invitrogen). For all experiments, third-passage fibroblasts were used one day after reaching confluence. […] After 24 hour treatment RNA and protein was isolated and analyzed for the expression of components of ECM and transcriptional regulators.
Cells were lysed in Cell Disruption Buffer supplied with the Paris kit (Ambion) and protein concentration was determined using Bradford reagent (Pierce). Proteins were separated on 10% SDS-PAAG and transferred into the PVDF membrane (Biorad). […] Signal was detected using ECL reagent (Pierce).

Human dermal fibroblasts [2] = test: RT-PCR analysis of mRNA levels of ECM components after atRA treatment; type: cell-based; details: fold induction (+) or suppression (−) vs control; 10^-7 M, 24 hours
Experimental: as §1
(§2) Total RNA from various human tissues was purified using RNAwiz (Ambion, USA) and subjected to subsequent DNase I treatment using the DNA-Free kit (Ambion). Total RNA from cancer cells was purified by using 4PCRmini kit (Ambion). First-strand cDNAs were synthesized with Superscript III reverse transcriptase (Invitrogen, USA) and 5 μg of total RNA using oligo d(T) priming in a final reaction volume of 50 μL
The cDNA was amplified by PCR using the 2.5 U Hot-Firepol (Solis BioDyne, Estonia) and buffer Yellow (Naxo, Estonia). Reaction was performed in a 10 ul volume, using 0.5 ul cDNA as a template. Following primer sets (Table 21) were designed for this study:
The thermal cycling protocols were as follows: initial denaturation of template DNA and heat-activation of polymerase (15 min at 95° C.) followed by 40 cycles denaturation (30 sec at 95° C.) annealing (58° C.) and extension (90 sec). PCR products were analysed on a 1% agarose gel. For sequencing, PCR reactions were purified using PCR purification kit (Qiagen, USA) and subcloned into TOPO TA cloning vector. Fragments were sequenced at GATC Biotech sequencing services (Germany).

[3] = tested on: dermal fibroblasts isolated from 17 individuals; test: Real time RT-PCR of ECM components, nuclear hormone receptors and coregulators in fibroblasts from 17 individuals; type: cell-based, human
Experimental: Total RNA was extracted from cells using RNA aqueous kit (Ambion, USA). First-strand cDNAs were synthesized with Superscript III reverse transcriptase (Invitrogen, USA) and 1 μg of total RNA using oligo d(T) priming in a final reaction volume of 40 μL.
Levels of specific mRNAs were measured by real-time RT-PCR using Platinum SYBR Green qPCR SuperMix UDG (Invitrogen) according the protocol on the LightCycler 2.0 (Roche, US). The cycling program steps were: for one cycle 50° C. 2 min, for one cycle 95° C. 2 min and for 45 cycles: 95° C. 10 s, 60° C. 10 s, 72° C. 10 s. All samples were run in triplicates. Results were analyzed with the comparative Ct method (from Applied Biosystems manual; Livak and Schmittgen, 2001). Every sample was normalized for the housekeeping gene GAPDH. Transcript levels in the atRA and TGFb1 treated samples were compared to control samples.

[4] = tested on: skin fibroblasts from 30 individuals; test: Combined score of expression stimulation of 5 genes in fibroblast isolates (FIG. 1); type: cell-based, human; details: 24 hour treatment, atRA 10^-7 M, Matrixyl 1 μM, KappaElastin 1 μM
Experimental: as §1, §2
The cDNA was amplified by PCR using the 2.5 U Hot-Firepol (Solis BioDyne, Estonia) and buffer Yellow (Naxo, Estonia). Reaction was performed in a 10 ul volume, using 0.5 ul cDNA as a template. Following primer sets were designed for this study:
The combined score of expression stimulation of 5 genes was calculated and blotted for each fibroblast isolate. […] This biological variation provides a good biological rational to use molecular diagnostics for matching cosmetics product and skin cells of specific individual (personalized cosmetics).

[5] = fibroblasts from 17 individuals, 1 μM, 24 hours

variation between individuals of effect on expression of nuclear hormone receptors, compared with co-regulators ([3]; cells treated with atRA, 17 individuals): less variation
variation between individual fibroblasts of expression of coactivators NCOA1, NCOA2 and NCOA3 ([3]; in response to atRA, 17 individuals): highest variation
SMILES: CC1=C(/C=C/C(C)=C/C=C/C(C)=C/C(=O)O)C(C)(C)CCC1 [all trans retinoic acid, all-trans retinoic acid]
COL1A1 protein level (Human dermal fibroblasts [1]): 2 fold
COL1A2 protein level (Human dermal fibroblasts [1]): 2 fold
COL2A1 protein level (Human dermal fibroblasts [1]): 3 fold
COL3A1 protein level (Human dermal fibroblasts [1]): 2 fold
COL4A1 protein level (Human dermal fibroblasts [1]): 1 fold
COL4A2 protein level (Human dermal fibroblasts [1]): 1 fold
COL4A3 protein level (Human dermal fibroblasts [1]): 1 fold
COL4A4 protein level (Human dermal fibroblasts [1]): 1 fold
COL5A1 protein level (Human dermal fibroblasts [1]): 1 fold
Elastin ELN protein level (Human dermal fibroblasts [1]): 2 fold
Lysyl oxidase protein level (Human dermal fibroblasts [1]): 3 fold
MMP2 protein level (Human dermal fibroblasts [1]): 2 fold
MMP-11 protein level (Human dermal fibroblasts [1]): 3 fold
decorin protein level (Human dermal fibroblasts [1]): 4 fold
COL1A1 mRNA level (Human dermal fibroblasts [2]): 2 fold
COL1A2 mRNA level (Human dermal fibroblasts [2]): 4 fold
COL2A1 mRNA level (Human dermal fibroblasts [2]): 5 fold
COL3A1 mRNA level (Human dermal fibroblasts [2]): 2 fold
COL4A1 mRNA level (Human dermal fibroblasts [2]): 1 fold
COL4A2 mRNA level (Human dermal fibroblasts [2]): 3 fold
COL4A3 mRNA level (Human dermal fibroblasts [2]): 2 fold
COL4A4 mRNA level (Human dermal fibroblasts [2]): 1 fold
COL7A1 mRNA level (Human dermal fibroblasts [2]): 2 fold
Elastin ELN mRNA level (Human dermal fibroblasts [2]): 4 fold
FBLN5 mRNA level (Human dermal fibroblasts [2]): 2 fold
FN 1 mRNA level (Human dermal fibroblasts [2]): 1 fold
Fibrillin-1 mRNA level (Human dermal fibroblasts [2]): 1 fold
Fibrillin-2 mRNA level (Human dermal fibroblasts [2]): 1 fold
Fibulin-2 mRNA level (Human dermal fibroblasts [2]): 3 fold
Lumican mRNA level (Human dermal fibroblasts [2]): 1 fold
Lysyl oxidase mRNA level (Human dermal fibroblasts [2]): 8 fold
MMP2 mRNA level (Human dermal fibroblasts [2]): 2 fold
MMP7 mRNA level (Human dermal fibroblasts [2]): 2 fold
MMP9 mRNA level (Human dermal fibroblasts [2]): 2 fold
MMP12 mRNA level (Human dermal fibroblasts [2]): 2 fold
MMP13 mRNA level (Human dermal fibroblasts [2]): 5 fold
MMP19 mRNA level (Human dermal fibroblasts [2]): 1 fold
MMP20 mRNA level (Human dermal fibroblasts [2]): 1 fold
MMP-11 mRNA level (Human dermal fibroblasts [2]): 7 fold
TIMP1 mRNA level (Human dermal fibroblasts [2]): 2 fold
TIMP3 mRNA level (Human dermal fibroblasts [2]): 3 fold
TIMP4 mRNA level (Human dermal fibroblasts [2]): 1 fold
aggrecan mRNA level (Human dermal fibroblasts [2]): 1 fold
decorin mRNA level (Human dermal fibroblasts [2]): 6 fold
fibromodulin mRNA level (Human dermal fibroblasts [2]): 1 fold
CBP expression in RA treatment compared to control, from-to between individuals [3, 5]: (from −2.15 to 3.17) fold
COL1A1 expression in RA treatment compared to control, from-to between individuals [3, 5]: (from −6.25 to 3.25) fold
COL1A2 expression in RA treatment compared to control, from-to between individuals [3, 5]: (from −3.13 to 1.83) fold
COL3A1 expression in RA treatment compared to control, from-to between individuals [3, 5]: (from −2.28 to 2.89) fold
COL4A1 expression in RA treatment compared to control, from-to between individuals [3, 5]: (from −3.97 to 2.18) fold
COL5A1 expression in RA treatment compared to control, from-to between individuals [3, 5]: (from −4.76 to 2.39) fold
COL5A2 expression in RA treatment compared to control, from-to between individuals [3, 5]: (from −1.41 to 2.94) fold
CTGF expression in RA treatment compared to control, from-to between individuals [3, 5]: (from −2.4 to 2.64) fold
ELN expression in RA treatment compared to control, from-to between individuals [3, 5]: (from −2.44 to 3.02) fold
FN 1 transcr.v.1 expression in RA treatment compared to control, from-to between individuals [3, 5]: (from −3.63 to 1.14) fold
Individual variation of gene expression in RA treatment: CBP [3, 5]: 5.32 fold
Individual variation of gene expression in RA treatment: COL1A1 [3, 5]: 9.5 fold
Individual variation of gene expression in RA treatment: COL1A2 [3, 5]: 4.96 fold
Individual variation of gene expression in RA treatment: COL3A1 [3, 5]: 5.17 fold
Individual variation of gene expression in RA treatment: COL4A1 [3, 5]: 6.15 fold
Individual variation of gene expression in RA treatment: COL4A4 [3, 5]: 1.63 fold
Individual variation of gene expression in RA treatment: COL5A1 [3, 5]: 7.15 fold
Individual variation of gene expression in RA treatment: COL5A2 [3, 5]: 4.35 fold
Individual variation of gene expression in RA treatment: CTGF [3, 5]: 5.04 fold
Individual variation of gene expression in RA treatment: ELN [3, 5]: 5.46 fold
Individual variation of gene expression in RA treatment: FN 1 transcr.v.1 [3, 5]: 4.77 fold
Individual variation of gene expression in RA treatment: MMP1, collagenase 1 [3, 5]: 7.09 fold
Individual variation of gene expression in RA treatment: MMP2 gelatinase [3, 5]: 5.05 fold
Individual variation of gene expression in RA treatment: MMP3 stromelysin [3, 5]: 6.4 fold
Individual variation of gene expression in RA treatment: MMP7 [3, 5]: 16.46 fold
Individual variation of gene expression in RA treatment: MMP10, stromelysin 2 [3, 5]: 12 fold
Individual variation of gene expression in RA treatment: MMP19 [3, 5]: 3.41 fold
Individual variation of gene expression in RA treatment: NCOA1 [3, 5]: 5.68 fold
Individual variation of gene expression in RA treatment: NCOA2 [3, 5]: 5.63 fold
Individual variation of gene expression in RA treatment: NCOA3 [3, 5]: 6.16 fold
Individual variation of gene expression in RA treatment: NCOA5 [3, 5]: 3.1 fold
Individual variation of gene expression in RA treatment: NCOA6 [3, 5]: 3.43 fold
Individual variation of gene expression in RA treatment: NCOA7 [3, 5]: 4.44 fold
Individual variation of gene expression in RA treatment: NCOR1 [3, 5]: 4.2 fold
Individual variation of gene expression in RA treatment: PC4 [3, 5]: 3.57 fold
Individual variation of gene expression in RA treatment: PPARG [3, 5]: 4.59 fold
Individual variation of gene expression in RA treatment: RARA [3, 5]: 4.44 fold
Individual variation of gene expression in RA treatment: RARG [3, 5]: 3.37 fold
Individual variation of gene expression in RA treatment: RXRA [3, 5]: 4.34 fold
Individual variation of gene expression in RA treatment: RXRG [3, 5]: 4.01 fold
Individual variation of gene expression in RA treatment: TIMP1 [3, 5]: 4.21 fold
MMP1, collagenase 1 expression in RA treatment compared to control, from-to between individuals [3, 5]: (from −3.38 to 3.71) fold
MMP2 gelatinase expression in RA treatment compared to control, from-to between individuals [3, 5]: (from −2.7 to 2.35) fold
MMP3 stromelysin expression in RA treatment compared to control, from-to between individuals [3, 5]: (from −3.73 to 2.67) fold
MMP7 expression in RA treatment compared to control, from-to between individuals [3, 5]: (from −14.77 to 1.69) fold
MMP10, stromelysin 2 expression in RA treatment compared to control, from-to between individuals [3, 5]: (from −5.15 to 6.84) fold
MMP19 expression in RA treatment compared to control, from-to between individuals [3, 5]: (from −2.4 to 1.01) fold
NCOA1 expression in RA treatment compared to control, from-to between individuals [3, 5]: (from −2.99 to 2.69) fold
NCOA2 expression in RA treatment compared to control, from-to between individuals [3, 5]: (from −1.95 to 3.68) fold
NCOA3 expression in RA treatment compared to control, from-to between individuals [3, 5]: (from −2.02 to 4.14) fold
NCOA5 expression in RA treatment compared to control, from-to between individuals [3, 5]: (from −1.25 to 1.85) fold
NCOA6 expression in RA treatment compared to control, from-to between individuals [3, 5]: (from −1.44 to 1.99) fold
NCOA7 expression in RA treatment compared to control, from-to between individuals [3, 5]: (from −1.85 to 2.59) fold
NCOR1 expression in RA treatment compared to control, from-to between individuals [3, 5]: (from −2.23 to 1.97) fold
PC4 expression in RA treatment compared to control, from-to between individuals [3, 5]: (from −1.8 to 1.77) fold
PPARG expression in RA treatment compared to control, from-to between individuals [3, 5]: (from −1.64 to 2.95) fold
RARA expression in RA treatment compared to control, from-to between individuals [3, 5]: (from −1.53 to 2.91) fold
RARG expression in RA treatment compared to control, from-to between individuals [3, 5]: (from −1.45 to 1.92) fold
RXRA expression in RA treatment compared to control, from-to between individuals [3, 5]: (from −1.75 to 2.59) fold
RXRG expression in RA treatment compared to control, from-to between individuals [3, 5]: (from −2.02 to 1.99) fold
induced or repressed expression of different genes (Col1A1, Col4A1, Elastin, MMP1, MMP7) ([3]; in different fibroblast isolates, 17 individuals, 1 μM, 24 hours): up to 8 fold
combined score of expression stimulation of 5 genes (COL1A1, COL2A1, elastin, proteoglycan, TIMP1) per fibroblast isolate [4]: 3 groups of fibroblasts that have different response
